Assay [1] has as its system Influenza A and B strains. Also on record: species or system Mice. The conditions noted are these: in vivo.
Assay [2] relates to Respiratory Syncytial Virus (RSV). In words: microbe, parasite or virus in culture. It is filed as cell-based. Particulars: human respiratory syncytial virus, BSC-1; BS-C-1 cells (African Green Monkey kidney cells); plaque/foci reduction; read-out: Anti-respiratory syncytial virus BS-C-1 cells IC₅₀.
Assay [3] relates to Influenza A and B strains. The assay is described as follows: microbe, parasite or virus in culture. Type of assay: cell-based. The conditions noted are these: in Gallus gallus, read-out: Anti-influenza Activity CE cells IC50,µM.

`Nc1nc2c(ncn2[C@@H]2O[C@H](CO)[C@@H](O)[C@H]2F)c(=O)[nH]1` [Example 7, 9-(2-Deoxy-2-fluoro-β-D-ribofuranosyl)guanine]: the “Anti-influenza Activity Mouse log10 reduction in virus titre. (Average of 5 Mice)” value in assay [1] is “+(2.4) log10”. The IC50 was 26.2 µM in assay [2] and 0.8 to 2 µM in assay [3].

Consider `COc1nc(N)nc2c1ncn2[C@@H]1O[C@H](CO)[C@@H](O)[C@H]1F` [Example 12, 2-Amino-9-(2-deoxy-2-fluoro-β-D-ribofuranosyl)-6-methoxy-9H-purine], for which the “Anti-influenza Activity Mouse log10 reduction in virus titre. (Average of 5 Mice)” value in assay [1] is “+(1.9) log10”. The IC50 is 6.3 µM in assay [2] and 0.4 µM in assay [3].

Consider `Nc1nc(N)c2ncn([C@@H]3O[C@H](CO)[C@@H](O)[C@H]3F)c2n1` [Example 6, 2,6-Diamino-9-(2-deoxy-2-fluoro-β-D-ribofuranosyl)-9H-purine], for which the “Anti-influenza Activity Mouse log10 reduction in virus titre. (Average of 5 Mice)” value in assay [1] is “+(2.1) log10”. Besides, the IC50 in assay [3] came out at 0.6 µM.

As for `Nc1ncc2ncn([C@@H]3O[C@H](CO)[C@@H](O)[C@H]3F)c2n1` [Example 9, 2-Amino-9-(2-deoxy-2-fluoro-β-D-ribofuranosyl)-9H-purine], the “Anti-influenza Activity Mouse log10 reduction in virus titre. (Average of 5 Mice)” value in assay [1] is “+(1.6) log10”.

For the molecule `Nc1ncnc2c1ncn2[C@@H]1O[C@H](CO)[C@@H](O)[C@H]1F` [Example 8, 9-(2-Deoxy-2-fluoro-β-D-ribofuranosyl)adenine], in assay [1], the “Anti-influenza Activity Mouse log10 reduction in virus titre. (Average of 5 Mice)” value is given as “+(2.3) log10”. For the same molecule, the IC50 in assay [3] is 4 µM.

(Values after patent publication EP0671410A1, “Antiviral compounds” (priority 1989, dated 1991).)
